From patent publication US12653776B2, “Methods of treatment of cancer by continuous infusion of coenzyme Q10” (priority 2013, dated 2026)

Experiments:
[1] = tested on: MIAPaCa-2 human pancreatic tumor cells; assay: Pancreatic cancer (MIAPaCa-2) mouse model, survival; type: in vivo, NOD scid gamma (NSG) mice
Description: For example, FIG. 7 is a schematic describing a study investigating three different dosing regimens for coenzyme Q10 in an animal model of pancreatic cancer. The effect of coenzyme Q10 alone or in combination with gemcitabine on total survival in a preclinical mouse model of pancreatic cancer was evaluated.
Equal numbers of MIAPaCa-2 human pancreatic tumor cells were suspended in […]® and injected into NOD scid gamma (NSG) mice. The NSG mouse model is devoid of innate and adaptive immune systems and provides a biological environment suitable for the growth of human tumors in vivo. The MIAPaCa-2 is a well established human derived pancreatic carcinoma cell line that can be used to establish pancreatic tumors in immunosuppressed animals. MIAPaca-2 tumors were allowed to develop for, on average, at least 3 weeks in mice prior to initiation of treatment. Animals with palpable tumors were randomized into treatment groups.
The three treatment regimens utilized for the study included once/daily, twice/daily or thrice/daily dosing of coenzyme Q10 at either 50 mg/kg body weight (Regimen 1 & Regimen 2) or 50 mg/kg or 75 mg/kg body weight (Regimen 3) alone or in combination with a fixed dose of gemcitabine (150) mg/kg body weight). For example, mice treated twice/daily received two 50 mg/kg doses of coenzyme Q10, for a total of 100 mg/kg/day, and mice treated thrice daily received three 50 mg/kg doses of coenzyme Q10 for a total of 150 mg/kg/day. Each group of animals received chemotherapeutic treatment for a minimum of three cycles and was maintained to determine outcomes.
Next, a continuous infusion protocol was implemented to determine the effect of constant coenzyme Q10 administration on survival in an animal model of pancreatic cancer. An infusion pump was surgically installed in the animals to facilitate continuous infusion of coenzyme Q10 at a dose of 25 mg/kg, 50 mg/kg or 100 mg/kg body weight per day. Treatment was continued throughout the entire duration of the study.

[2] = tested on: H522 human lung cancer cells; assay: H522 human lung cancer rat model, survival; type: in vivo, rats
Description: The effect of coenzyme Q10 dosing regimens was further investigated in rats implanted with H522 human lung cancer cells. Rats were randomized to receive either no treatment (control), continuous infusion with coenzyme Q10, chemotherapy, or a combination of coenzyme Q10 and chemotherapy. The dose of coenzyme Q10 was 50 mg/kg per day over 24 hours and the concentration was 4%. The chemotherapy was repeated on a three week cycle as follows: week 1: I.V. Cyclophosphamide, 35 mg/kg, 1×/wk and I.V. Doxorubicin 2.5 mg/kg, 3×/wk; Weeks 2-3: no treatment.

[3] = tested on: acute myeloid leukemia (KG1) cells; assay: Acute myeloid leukemia (KG1) mouse model, survival; type: in vivo, mice
Description: Human acute erythro-leukemia (K562) and acute myeloid leukemia (KG1) cells (1×10^6) were injected intraperitoneally in immune-compromised mice. Engraftment was confirmed by complete blood counts, presence of anemia, and clinical assessment of animal behavior.
The mice (total n=120 for each model respectively) were randomized into four (n=30/group) treatment groups. Each treatment regimen was administered in a four week cycle with three weeks of treatment, one week off: • 1. Untreated (control) • 2. Coenzyme Q10 (4%, administered at 75 mg/kg, once/day by continuous infusion) • 3. Chemotherapy (cytarabine/AraC 25 mg/kg, 5×/week; and adriamycin/daunorubicin 5 mg/kg; 1×/wk) • 4. Coenzyme Q10 (4%, administered at 75 mg/kg, once/day by continuous infusion)+chemotherapy (cytarabine/AraC 25 mg/kg, 5×/week; and adriamycin/daunorubicin 5 mg/kg; 1×/wk)
All dosings were intravenous and followed a protocol of 3 week treatment followed by 1 week rest. Leukemia was monitored by pallor and blood smears, and hone marrow smears were performed post-mortem for analysis using Wright's stain. Survival results from the study of mice with acute erythroleukemia are show in FIG. 5. Day 1 is the first day of treatment with coenzyme Q10 and/or chemotherapy.

For coenzyme Q10, the survival ([1]; coenzyme Q10 alone, once/twice/thrice daily 50 mg/kg (or 75 mg/kg), vs untreated or chemotherapy alone) was “increase in survival”, the survival rates ([1]; coenzyme Q10 in combination with gemcitabine 150 mg/kg) was “higher survival rates than coenzyme Q10 alone or gemcitabine alone” and the survival rates ([1]; continuous infusion) was “higher survival rates than those treated with continuous infusion of 50 mg/kg or 25 mg/kg”. For the same substance, the survival rate ([1]; continuous infusion 25 mg/kg body weight per day vs 50 mg/kg three times per day) was “higher survival rate”, the animal survival ([1]; increasing 50 mg/kg doses from once/daily to three times per day) was “significant improvement in animal survival” and the animal survival ([2]; continuous infusion 50 mg/kg per day combined with chemotherapy (cyclophosphamide + doxorubicin)) was “more effective than either treatment alone”. For the same substance, the animal survival ([2]; continuous infusion alone, 50 mg/kg per day over 24 hours, 4%, vs cyclophosphamide + doxorubicin) was “more effective than chemotherapy alone”, the survival ([3]; coenzyme Q10 75 mg/kg/day continuous infusion + chemotherapy (cytarabine + daunorubicin) vs other groups incl. chemotherapy alone, p<0.00001) was “significant increase in survival” and the survival ([3]; coenzyme Q10 alone (4%, 75 mg/kg once/day by continuous infusion) vs chemotherapy (cytarabine + daunorubicin)) was “improved survival compared to chemotherapy”.
